Data as given in patent US7446199B2, “Compositions useful as inhibitors of protein kinases” (Vertex Pharmaceuticals Incorporated, priority 2003, dated 2008).

Legend:
c-Met = c-Met (Homo sapiens, UniProt P08581); experiment: Ki determination for the inhibition of c-Met, coupled enzyme system; format: biochemical; conditions: 200 μM ATP, 10 μM polyGluTyr, 80 nM c-Met, 30° C.
Summary of the method: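 Coupled pyruvate kinase/lactate dehydrogenase NADH assay with 80 nM c-Met, 200 μM ATP, 10 μM polyGluTyr in pH 7.5 HEPES, 1.5% DMSO at 30° C. Compound (0.006–12.5 μM final, 12-point) preincubated 10 min; ATP started reaction, rates read over 10 min; Ki derived from rate versus inhibitor concentration.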

FLT-3 = target: T1, FLT-3 (Homo sapiens, UniProt P36888); experiment: Inhibition of FLT-3, radiometric filter-binding assay; format: biochemical; conditions: 90 μM ATP, 0.5 mg/mL pE4Y, room temperature
T1 construct: 0.02% BSA and 3 nM FLT-3
T1 sequence (P36888 27-993): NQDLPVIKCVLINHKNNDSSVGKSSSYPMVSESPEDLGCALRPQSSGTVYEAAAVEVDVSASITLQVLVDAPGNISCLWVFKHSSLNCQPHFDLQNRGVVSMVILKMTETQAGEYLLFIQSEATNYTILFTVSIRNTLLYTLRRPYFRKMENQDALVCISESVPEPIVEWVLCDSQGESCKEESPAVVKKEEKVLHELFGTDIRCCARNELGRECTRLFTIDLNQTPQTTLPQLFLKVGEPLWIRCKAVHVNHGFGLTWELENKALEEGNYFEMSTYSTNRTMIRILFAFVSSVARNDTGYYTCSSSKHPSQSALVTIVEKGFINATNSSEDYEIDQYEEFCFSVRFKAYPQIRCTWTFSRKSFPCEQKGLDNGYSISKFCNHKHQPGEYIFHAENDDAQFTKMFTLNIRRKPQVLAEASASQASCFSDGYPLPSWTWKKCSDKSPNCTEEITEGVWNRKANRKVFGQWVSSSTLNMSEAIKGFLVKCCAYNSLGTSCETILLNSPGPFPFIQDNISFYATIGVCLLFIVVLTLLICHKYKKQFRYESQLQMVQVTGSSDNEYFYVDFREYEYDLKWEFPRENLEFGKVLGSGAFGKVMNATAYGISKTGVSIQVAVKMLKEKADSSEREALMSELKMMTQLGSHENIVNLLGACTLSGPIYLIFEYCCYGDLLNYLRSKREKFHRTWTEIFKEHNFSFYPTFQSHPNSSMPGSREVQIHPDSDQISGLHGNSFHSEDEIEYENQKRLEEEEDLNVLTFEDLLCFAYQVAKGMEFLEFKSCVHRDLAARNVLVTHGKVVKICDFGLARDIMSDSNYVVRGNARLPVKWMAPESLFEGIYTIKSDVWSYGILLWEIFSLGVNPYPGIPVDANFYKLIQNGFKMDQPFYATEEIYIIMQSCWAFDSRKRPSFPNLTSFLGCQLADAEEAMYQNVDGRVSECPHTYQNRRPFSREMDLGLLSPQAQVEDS
Summary of the method: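 Radiometric filter-binding assay of FLT-3 (3 nM in Solution 2; final conc not stated) phosphorylating poly(Glu,Tyr) 4:1 (0.5 mg/mL) with 90 μM ATP plus [γ-33P]ATP, in HEPES pH 7.5, MgCl2, NaCl, DTT, BSA, 2.5% DMSO. 12-point titration, typically 0.01–5 μM, 20 min at room temperature; TCA-stopped, filtered, scintillation-counted; IC50 or Ki fitted.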

Chain of c-Met (P08581 25-1390): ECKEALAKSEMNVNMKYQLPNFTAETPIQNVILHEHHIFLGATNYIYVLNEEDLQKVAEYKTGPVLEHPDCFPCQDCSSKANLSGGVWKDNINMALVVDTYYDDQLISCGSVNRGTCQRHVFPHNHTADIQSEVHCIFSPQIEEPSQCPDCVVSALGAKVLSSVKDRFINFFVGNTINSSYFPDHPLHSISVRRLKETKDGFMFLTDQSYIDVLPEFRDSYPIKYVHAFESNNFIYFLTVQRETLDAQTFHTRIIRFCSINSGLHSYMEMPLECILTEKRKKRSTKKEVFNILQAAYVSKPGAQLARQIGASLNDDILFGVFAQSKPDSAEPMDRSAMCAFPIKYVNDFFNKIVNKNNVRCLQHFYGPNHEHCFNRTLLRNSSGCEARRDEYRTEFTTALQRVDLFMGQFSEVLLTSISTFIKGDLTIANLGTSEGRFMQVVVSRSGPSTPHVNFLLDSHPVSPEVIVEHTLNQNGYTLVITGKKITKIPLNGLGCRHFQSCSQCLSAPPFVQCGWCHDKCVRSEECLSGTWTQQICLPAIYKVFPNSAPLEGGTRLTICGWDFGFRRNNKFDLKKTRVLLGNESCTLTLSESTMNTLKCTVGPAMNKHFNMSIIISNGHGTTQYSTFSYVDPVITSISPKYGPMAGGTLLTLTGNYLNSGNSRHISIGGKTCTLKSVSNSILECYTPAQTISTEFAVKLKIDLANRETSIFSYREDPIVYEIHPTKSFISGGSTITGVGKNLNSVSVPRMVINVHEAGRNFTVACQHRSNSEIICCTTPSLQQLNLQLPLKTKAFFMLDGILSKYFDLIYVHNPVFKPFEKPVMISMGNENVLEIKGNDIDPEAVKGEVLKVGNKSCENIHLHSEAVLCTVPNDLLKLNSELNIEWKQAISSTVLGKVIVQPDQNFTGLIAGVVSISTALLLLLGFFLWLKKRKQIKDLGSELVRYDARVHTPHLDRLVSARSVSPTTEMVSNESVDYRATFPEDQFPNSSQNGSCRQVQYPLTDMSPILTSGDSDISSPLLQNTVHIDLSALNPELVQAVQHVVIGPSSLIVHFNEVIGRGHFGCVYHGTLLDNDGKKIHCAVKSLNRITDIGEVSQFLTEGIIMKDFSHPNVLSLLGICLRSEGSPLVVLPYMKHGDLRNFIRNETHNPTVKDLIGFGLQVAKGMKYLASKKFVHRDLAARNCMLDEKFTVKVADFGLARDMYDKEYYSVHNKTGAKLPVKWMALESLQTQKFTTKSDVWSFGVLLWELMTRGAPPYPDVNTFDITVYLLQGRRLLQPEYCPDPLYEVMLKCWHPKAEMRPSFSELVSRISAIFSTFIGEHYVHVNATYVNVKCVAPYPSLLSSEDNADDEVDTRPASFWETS

In the case of CN1CCN(C(=O)[C@H]2C[C@@H]2c2cnc3[nH]cc(-c4oncc4-c4cccc(F)c4F)c3c2)CC1 (relative stereo) [Compound 142, trans-(2-{3-[4-(2,3-Difluoro-phenyl)-isoxazol-5-yl]-1H-pyrrolo[2,3-b]pyridin-5-yl}-cyclopropyl)-(4-methyl-piperazin-1-yl)-methanone], the Ki (c-Met) is reported as < 0.2 µM and the Ki (FLT-3) is reported as < 0.2 µM.

COc1cnc2[nH]cc(-c3nncn3-c3cccc(F)c3F)c2c1 [Compound 108, 3-[4-(2,3-Difluoro-phenyl)-4H-[1,2,4]triazol-3-yl]-5-methoxy-1H-pyrrolo[2,3-b]pyridine] showed a Ki (c-Met) of 0.2 to 1 µM and a Ki (FLT-3) of 1 to 12.5 µM.

For Fc1cc(F)c(F)c(-c2cnoc2-c2c[nH]c3ncccc23)c1 [Compound 39, 3-[4-(2,3,5-Trifluoro-phenyl)-isoxazol-5-yl]-1H-pyrrolo [2,3-b]pyridine], the Ki (c-Met) was 0.2 to 1 µM and the Ki (FLT-3) was 1 to 12.5 µM.

Compound O=C(c1cnc2[nH]cc(-c3oncc3-c3cccc(F)c3F)c2c1)N1CCCC1 [Compound 104, {3-[4-(2,3-Difluoro-phenyl)-isoxazol-5-yl]-1H-pyrrolo[2,3-b]pyridin-5-yl}-pyrrolidin-1-yl-methanone] has a Ki (c-Met) of 0.2 to 1 µM and a Ki (FLT-3) of 1 to 12.5 µM.

In the case of Cc1cnc2[nH]cc(-c3oncc3-c3cccc(F)c3F)c2c1 [Compound 46, 3-[4-(2,3-Difluoro-phenyl)-isoxazol-5-yl]-5-methyl-1H-pyrrolo[2,3-b]pyridine], the Ki (c-Met) is reported as < 0.2 µM and the Ki (FLT-3) is reported as 0.2 to 1 µM.

With CN(C)C1CCC(c2cnc3[nH]cc(-c4oncc4-c4cccc(F)c4F)c3c2)CC1 (stereo not drawn) [Compound 141, (4-{3-[4-(2,3-Difluoro-phenyl)-isoxazol-5-yl]-1H-pyrrolo[2,3-b]pyridin-5-yl}-cyclohexyl)-dimethylamine] the Ki (c-Met) was < 0.2 µM and the Ki (FLT-3) was 0.2 to 1 µM.

c1ccc(-c2cnoc2-c2c[nH]c3ncccc23)cc1 [Compound 35, 3-[4-Phenyl-isoxazol-5-yl]-1H-pyrrolo[2,3-b]pyridine] gave a Ki (c-Met) of 0.2 to 1 µM.

Fc1cccc(-c2cnoc2-c2n[nH]c3ncccc23)c1F [Compound 31, 3-(4-(2,3-difluorophenyl)isoxazol-5-yl)-1H-pyrazolo[3,4-b]pyridine] was tested, and the Ki (c-Met) was 0.2 to 1 µM and the Ki (FLT-3) was 1 to 12.5 µM.

Compound Fc1ccc(F)c(-c2cnoc2-c2c[nH]c3ncccc23)c1F [Compound 41, 3-[4-(2,3,6-Trifluoro-phenyl)-isoxazol-5-yl]-1H-pyrrolo [2,3-b]pyridine] has a Ki (c-Met) of 0.2 to 1 µM and a Ki (FLT-3) of 1 to 12.5 µM.

In the case of C[N+]1(C)CCN(c2ccc(-c3cnc4[nH]cc(-c5oncc5-c5cccc(F)c5F)c4c3)cc2)CC1 [Compound 155], the Ki (c-Met) is reported as < 0.2 µM and the Ki (FLT-3) is reported as < 0.2 µM.

In the case of OCc1cnc2[nH]cc(-c3oncc3-c3cccc(F)c3F)c2c1 [Compound 55, {3-[4-(2,3-Difluoro-phenyl)-isoxazol-5-yl]-1H-pyrrolo[2,3-b]pyridin-5-yl}-methanol], the Ki (c-Met) is reported as 0.2 to 1 µM and the Ki (FLT-3) is reported as 1 to 12.5 µM.

In the case of Fc1cnc2[nH]cc(-c3oncc3-c3cccc(F)c3F)c2c1 [Compound 45, 3-[4-(2,3-Difluoro-phenyl)-isoxazol-5-yl]-5-fluoro-1H-pyrrolo[2,3-b]pyridine], the Ki (c-Met) is reported as 0.2 to 1 µM and the Ki (FLT-3) is reported as 1 to 12.5 µM.

In the case of Fc1cccc(-c2cnoc2-c2c[nH]c3ccc(-c4ccncc4)cc23)c1F [Compound 34, 3-[4-(2,3-Difluoro-phenyl)-isoxazol-5-yl]-5-pyridin-4-yl-1H-indole], the Ki (FLT-3) is reported as 1 to 12.5 µM.

For Fc1cccc(-c2cnoc2-c2c[nH]c3ncc(Cl)cc23)c1F [Compound 44, 3-[4-(2,3-Difluoro-phenyl)-isoxazol-5-yl]-5-chloro-1H-pyrrolo[2,3-b]pyridine], the Ki (c-Met) was < 0.2 µM and the Ki (FLT-3) was 1 to 12.5 µM.

OB(O)c1cnc2[nH]cc(-c3oncc3-c3cccc(F)c3F)c2c1 [Compound 154] was tested, and the Ki (c-Met) was < 0.2 µM and the Ki (FLT-3) was 0.2 to 1 µM.

NC(=O)c1ccc(-c2cnc3[nH]cc(-c4oncc4-c4cccc(F)c4F)c3c2)cc1 [Compound 153] was tested, and the Ki (c-Met) was < 0.2 µM and the Ki (FLT-3) was < 0.2 µM.

With Fc1cccc(-n2cnnc2-c2c[nH]c3ncc(-c4ccc(N5CCNCC5)nc4)cc23)c1F [Compound 111, 3-[4-(2,3-Difluoro-phenyl)-4H-[1,2,4]triazol-3-yl]-5-(6-piperazin-1-yl-pyridin-3-yl)-1H-pyrrolo[2,3-b]pyridine] the Ki (c-Met) was 0.2 to 1 µM and the Ki (FLT-3) was 1 to 12.5 µM.

With Fc1cccc(-c2cnoc2-c2c[nH]c3ncc(CCn4cncn4)cc23)c1F [Compound 132, 3-[4-(2,3-Difluoro-phenyl)-isoxazol-5-yl]-5-(2-[1,2,4]triazol-1-yl-ethyl)-1H-pyrrolo[2,3-b]pyridine] the Ki (c-Met) was 0.2 to 1 µM and the Ki (FLT-3) was 0.2 to 1 µM.

Fc1cccc(-c2cnoc2-c2c[nH]c3nc(Cl)c(-c4ccncc4)cc23)c1F [Compound 103, 6-Chloro-3-[4-(2,3-difluoro-phenyl)-isoxazol-5-yl]-5-pyridin-4-yl-1H-pyrrolo[2,3-b]pyridine] was tested, and the Ki (c-Met) was 0.2 to 1 µM and the Ki (FLT-3) was 0.2 to 1 µM.
